Patent publication US20250340561A1, “QUINAZOLINE COMPOUND FOR INDUCING DEGRADATION OF G12D MUTANT KRAS PROTEIN” (Astellas Pharma Inc., priority 2021, published 2025)

Target: T1, KRAS G12D (Homo sapiens, UniProt P01116, G12D)
T1 construct: host or cells: AsPC-1 human pancreatic cancer cells
Assay: Test Example 1-2: KRAS degradation action in AsPC-1, Cell ELISA
Type: cell-based
Details: AsPC-1 cells, overnight treatment, corrected with β-actin, 0% = 10 μM Example No. 26 (Example No. 8 for Example Nos. 74 and 75)
Method: Test Example 1-2: Evaluation of KRAS Degradation Action on Human G12D Mutant KRAS-Positive Pancreatic Cancer Line AsPC-1
The KRAS degradation action of test compounds was evaluated by measuring the expression levels of KRAS G12D by Cell ELISA.
[…] As for the cell culture conditions, a RPMI 1640 medium containing 10% fetal bovine serum was used in the presence of 5% CO2 at 37° C. The next day, the test compounds (10 points having final concentrations in the range of 10 μM to 0.3 nM), the compound of Example No. 26 (Example No. 8 for Example Nos. 74 and 75) of a final concentration of 10 μM as a positive control and DMSO, which was the solvent for the test compounds, as a negative control were diluted 500-fold with a fresh medium and were added at 20 μL per well. The cells were cultured overnight.
The next day, the culture supernatant was removed, and 4% paraformaldehyde phosphate buffer (from FUJIFILM Wako Pure Chemical Corporation) was added at 20 μL per well. The plate was allowed to stand for 30 minutes at room temperature to thus immobilize the cells. Then, the supernatant was removed, and 0.1% Triton X-100 (from Amersham Biosciences)-containing PBS was added at 20 μL per well. After allowing to stand for 10 minutes at room temperature, the supernatant was removed. PBS was added at 25 μL per well, and the supernatant was removed to thus wash each well. The washing was performed twice in total. Next, the supernatant was removed, and 0.5% sodium dodecyl sulfate (SDS; from Invitrogen)-containing PBS was added at 20 μL per well. After allowing to stand at room temperature for 10 minutes, the supernatant was removed by centrifugation (using a centrifugal dehydrator machine, the supernatant was removed by the same method hereinafter). PBS was added at 25 μL per well, and the supernatant was removed to thus wash each well. The washing was performed twice in total. The supernatant was removed by centrifugation, and a blocking solution (Intercept Blocking Buffer) was added at 20 μL per well. After allowing to stand for 30 minutes at room temperature, the supernatant was removed by centrifugation, and a solution obtained by diluting an anti-Ras (G12D Mutant Specific) antibody and an anti-3-actin antibody 1,000-fold with a blocking solution was added at 20 μL per well as a primary antibody. The plate was allowed to stand overnight at 4° C.
The next day, the plate was centrifuged to remove the supernatant. PBS was added at […], and the supernatant was removed to thus wash each well. The washing was performed twice in total. The supernatant was removed by centrifugation, and a solution obtained by diluting Donkey anti-Mouse IgG H&L (TRDye 680RD) (from Li—COR Biosciences) and Goat anti-Rabbit IgG H&L (IRDye 800CW) (from Li—COR Biosciences) 1,000-fold with a blocking solution was added at 20 μL per well as a secondary antibody. After allowing to stand for 1 hour at room temperature, the supernatant was removed. PBS was added at 25 μL per well, and the supernatant was removed to thus wash each well. The washing was performed twice in total. After removing the supernatant by centrifuging the plate, the plate was dried as it was with air at room temperature for 2 hours or more, and the 700-nm and 800-nm fluorescent signals were measured with Aerius (from LI-COR Biosciences).
With the signaling value at the time of addition of DMSO corrected with the signaling value of β-actin taken as 100% and with the signaling value at the time of addition of 10 μM of the compound of Example No. 26 taken as 0%, the 50% degradation values (DC50) of the amounts of KRAS were calculated by Sigmoid-Emax model nonlinear regression analysis. The molecular weights of the test compounds were calculated as the molecular weights of the trihydrochloride for Example No. 30, the tetrahydrochloride for Example No. 46 and the free forms forming no salt for the remaining Example Nos. The results for some test compounds of the formula (I) are shown in Table 2.

T1 sequence (P01116 1-188 isoform P01116-2 G12D): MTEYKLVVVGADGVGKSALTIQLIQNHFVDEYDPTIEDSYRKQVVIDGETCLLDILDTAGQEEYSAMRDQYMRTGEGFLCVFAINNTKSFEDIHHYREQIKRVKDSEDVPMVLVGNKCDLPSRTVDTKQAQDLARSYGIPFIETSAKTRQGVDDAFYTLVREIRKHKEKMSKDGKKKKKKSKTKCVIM

| SMILES | DC50 |
| --- | --- |
| Cc1ncsc1-c1ccc([C@H](CO)NC(=O)[C@@H]2C[C@@H](O)CN2C(=O)[C@@H](NC(=O)C[C@@H]2CCN(C(=O)c3ccc(COc4c(-c5c(C)c(F)cc6[nH]ncc56)c(C5CC5)cc5c(N6C[C@@H]7C[C@H]6CN7)nc(OC6CCOCC6)nc45)cc3)C2)C(C)C)cc1 [Example 75] | 5.89 µM |
| Cc1ncsc1-c1ccc([C@H](CO)NC(=O)[C@@H]2C[C@@H](O)CN2C(=O)[C@@H](NC(=O)CCN(C)C(=O)c2ccc(COc3c(-c4c(C)c(F)cc5[nH]ncc45)c(C4CC4)cc4c(N5C[C@@H]6C[C@H]5CN6)nc(OC5CCOCC5)nc34)cc2)C(C)C)cc1 [Example 74] | 1 µM |
